Measurements taken from patent US10765696B2, “Compositions of and methods of treatment with zwitterionic polysaccharide” (City of Hope, priority 2015, dated 2020).

Key:
HSV-1 strain 17+ = experiment: HSV encephalitis (HSE) survival model, corneal scarification; type: in vivo, mouse
Experimental: 129S6 Wild Type (WT), 129 FoxP3-GFP and IL-10 knock-out (KO) mice were bred. Male and female mice aged 6-10 weeks were infected with HSV-1 strain 17+ (HSV).
Prophylactic administration: six doses of 50 μg of PSA in sterile PBS was given as indicated-orally (PO), or intra-peritoneally (IP) over 3 weeks prior to HSV infection. Additionally, six doses of PSA were given IP on 9 days before HSV infection, 6 days before HSV infection, 3 days before HSV infection, day 0 of HSV infection (i.e., on the day of infection), 2 days post-infection, and 4 days post-infection. Mice received either PBS or the anti-viral drug acyclovir (ACV) from day 4 to 10 post-infection at 50 mg/kg. Therapeutic administration: PSA was administered on days 1, 3 and 6 post HSV infection by PO, IP or intravenous injection (IV) along with ACV beginning day 4-10 post-infection (pi).
The post-infection therapeutic regimen included PSA administered day 1, day 3, day 6 post-infection, with ACV administered from day 4 post-infection. At day 4 post-HSV infection, 1.25 mg of ACV was given per mouse by IP injections daily for 7 days. […] 129 WT or Rag mice were given PSA as indicated in FIG. 3A prior to the infection. ACV was given starting at day 4 post-infection (FIG. 3B).

T cells = experiment: Flow cytometry of T cells (phenotype, tetramer, intracellular cytokines) from treated HSV infected mice
monocytes = experiment: Monocyte degranulation (CD107a/b), blood and spleen of treated HSV infected mice; settings: monocytes from blood and spleen, day 6 post-infection
T and B cells = experiment: Immune cell analysis in uninfected WT mice during/after oral PSA treatment; type: in vivo, mouse
From the text: PSA increases IL-10 secreting T and B cells, as depicted in FIGS. 14A-14B.
Line plots showing CD39, CD73 and ICOS surface expression on CD4 and CD8 T cells isolated from mesenteric LN (MLN) of uninfected WT mice at indicated times during oral PSA treatment are depicted in FIGS. 16A-16B. FIG. 16A depicts CD4 T cells isolated from MLN of uninfected WT mice at indicated times during oral PSA treatment. FIG. 16B depicts CD8 T cells isolated from MLN of uninfected WT mice at indicated times during oral PSA treatment.

HSV 17+ strain = experiment: Flow cytometry of infiltrating leukocytes in brainstem (CNS inflammation) at day 6 pi
[1] = system: DCs, PMNs, CD45+ intra-epithelial lymphocytes; experiment: Binding of fluorescent PSA to immune cells after oral gavage; type: in vivo, mouse; settings: ileum of 129 WT or Rag mice
B cells = experiment: Splenic B cell phenotype in treated HSV infected mice; type: in vivo, mouse; settings: six oral doses of PSA, ACV from day 4 pi, spleen day 6 pi

Nc1nc2c(ncn2COCCO)c(=O)[nH]1 [ACV, acyclovir, reference compound]
prevention of lethal HSV encephalitis (HSE) (HSV-1 strain 17+; 129 WT mice, ACV given at day 4 post infection): Cannot Prevent Lethal HSV Encephalitis (HSE)

Bacteroides fragilis (B. fragilis) capsular polysaccharide A (PSA)
CD4+ ICOS+ T cells in the spleen (T cells; 129 WT mice, spleen): 56%
CD4+ ICOS+ T cells that produced IL-10 (T cells; PMA+ ionomycin stimulation): Approximately 10%
phenotype of FoxP3 Tregs (CD25, CD103) (T cells; cervical lymph nodes, HSV infected WT mice, ACV from d4, day 6 pi): functional phenotype
CD62Llow CD4 T cells that were ICOS+ (T cells; oral PSA, blood and spleen, day 6 post-infection): 56%
virus specific spleen CD8 T cells that were CD103+ (T cells; six oral doses of PSA, ACV from day 4, spleen day 6 post-infection): > 70%
CD4s that secrete IL-10 in response to stimulation (T cells; six oral doses of PSA, ACV from day 4, spleen day 6 post-infection, PMA+ionomycin): about 11%
frequency of Tregs (T cells; spleen or BS): No change
degranulation of monocytes following stimulation with HSV antigen (monocytes): limited degranulation
spontaneous degranulation of monocytes (monocytes): reduced spontaneous degranulation
IL-10 secreting T and B cells (T and B cells; MLN and spleen of uninfected WT mice after 6 doses of oral PSA): increases
accumulation of regulatory T cells (CD39, CD73, ICOS expression) (T and B cells; mesenteric lymph nodes of uninfected WT mice during oral PSA treatment): increases accumulation
CNS inflammation (% CD45high infiltrates, Ly6Chigh CD11b+ inflammatory monocytes in brainstem) (HSV 17+ strain; 129 Rag mice, ACV from day 4 pi, brainstem day 6 pi): does not reduce CNS inflammation
CNS inflammation (infiltrating leukocytes in brainstem) (HSV 17+ strain; 129 WT mice, ACV from day 4 pi, brainstem day 6 pi): reducing CNS inflammation
CD8+ in brainstem that were CD103+ (HSV 17+ strain; 129 WT mice, brainstem): majority
CD8+ virus specific based on tetramer staining (HSV 17+ strain; 129 WT mice, brainstem): Greater than 70%
IL-10 secretion from PSA stimulated CD45+ IEL [1]: induce IL-10 secretion by CD45+ IEL T cells in wild type but not Rag mice
survival of PSA treated B cell knockout mice or 129 Rag recipients of CD4 T cells, CD8 T cells or B cells (HSV-1 strain 17+; HSV 17+ strain, ACV from day 4 pi): B cells and T cells are essential for PSA mediated protection
protection against HSV infection (HSV-1 strain 17+; PSA IP therapeutically day 1, day 3, day 6 with ACV from day 4 post-infection): also did not protect against HSV infection
development of fatal HSE (HSV-1 strain 17+; mice pretreated with purified PSA prior to the HSV-1 infection, control PBS): prevented the development of fatal HSE
protection against HSV infection (HSV-1 strain 17+; six doses of 50 μg PSA prior to and during infection (or day -8 to +4 regimen, or day 1, 3, 6 pi), ACV 1.25 mg IP daily for 7 days from day 4 pi): did not protect against HSV infection
splenic B cell phenotype (CD138) (B cells): the majority of B cells express a highly activated secretory plasmablast phenotype
